Measured values reported in the NIST ThermoML archive (doi:10.1016/j.tca.2013.12.015).

Test: mn = molality of the nth substance listed, in mol/kg
Conditions: 101 kPa, Liquid; for speed of sound: Single path-length method; for mass density: Vibrating tube method

CCOC(=O)CC(C)=O [ethyl 3-oxobutanoate] + O
Conditions | mass density, 288.15 K [kg/m3] | mass density, 293.15 K [kg/m3] | mass density, 298.15 K [kg/m3] | mass density, 303.15 K [kg/m3] | mass density, 308.15 K [kg/m3] | speed of sound, 288.15 K [m/s] | speed of sound, 293.15 K [m/s] | speed of sound, 298.15 K [m/s] | speed of sound, 303.15 K [m/s] | speed of sound, 308.15 K [m/s]
m1 = 0.076 | 1000.05 | 999.128 | 997.91 | 996.474 | 994.809 | 1472.6 | 1487.8 | 1501.3 | 1513 | 1523.1
m1 = 0.1625 | 1001.1 | 1000.13 | 998.838 | 997.358 | 995.64 | 1479.2 | 1493.6 | 1506.4 | 1517.4 | 1526.9
m1 = 0.2495 | 1002.14 | 1001.1 | 999.76 | 998.22 | 996.445 | 1485.5 | 1499.2 | 1511.2 | 1521.6 | 1530.4
m1 = 0.3767 | 1003.62 | 1002.48 | 1001.05 | 999.44 | 997.59 | 1494.1 | 1506.7 | 1517.7 | 1527.1 | 1535
m1 = 0.4725 | 1004.7 | 1003.48 | 1002 | 1000.32 | 998.41 | 1500 | 1511.7 | 1522 | 1530.8 | 1538.1
m1 = 0.5324 | 1005.38 | 1004.1 | 1002.58 | 1000.86 | 998.9 | 1503.4 | 1514.7 | 1524.5 | 1532.9 | 1539.8
m1 = 0.6848 | 1007.03 | 1005.6 | 1004 | 1002.18 | 1000.12 | 1511.6 | 1521.7 | 1530.5 | 1537.8 | 1543.7
m1 = 0.7843 | 1008.1 | 1006.56 | 1004.9 | 1003.01 | 1000.9 | 1516.3 | 1525.7 | 1533.7 | 1540.4 | 1545.8
m1 = 0.9019 | 1009.31 | 1007.65 | 1005.93 | 1003.94 | 1001.76 | 1521.4 | 1529.9 | 1537.2 | 1543.1 | 1547.8

O [water] + CCCCn1cc[n+](C)c1.[Br-]
Conditions | mass density [kg/m3]
308.15 K, m2 = 0 | 994.062

COC(=O)CC(C)=O [methyl 3-oxobutanoate] + O
Conditions | mass density, 288.15 K [kg/m3] | mass density, 293.15 K [kg/m3] | mass density, 298.15 K [kg/m3] | mass density, 303.15 K [kg/m3] | mass density, 308.15 K [kg/m3] | speed of sound, 288.15 K [m/s] | speed of sound, 293.15 K [m/s] | speed of sound, 298.15 K [m/s] | speed of sound, 303.15 K [m/s] | speed of sound, 308.15 K [m/s]
m1 = 0.0809 | 1000.36 | 999.43 | 998.205 | 996.78 | 995.12 | 1472.5 | 1487.7 | 1501.3 | 1513.1 | 1523.2
m1 = 0.1654 | 1001.65 | 1000.66 | 999.37 | 997.9 | 996.2 | 1477.3 | 1491.9 | 1504.8 | 1516.1 | 1525.7
m1 = 0.285 | 1003.44 | 1002.36 | 1001 | 999.454 | 997.68 | 1484.7 | 1498.3 | 1510.5 | 1521 | 1529.9
m1 = 0.386 | 1004.9 | 1003.75 | 1002.33 | 1000.73 | 998.91 | 1490.1 | 1503.1 | 1514.6 | 1524.4 | 1532.7
m1 = 0.4607 | 1005.98 | 1004.75 | 1003.3 | 1001.65 | 999.79 | 1494.2 | 1506.6 | 1517.6 | 1527 | 1534.9
m1 = 0.5604 | 1007.37 | 1006.06 | 1004.56 | 1002.85 | 1000.94 | 1499.6 | 1511.4 | 1521.7 | 1530.5 | 1537.9
m1 = 0.6367 | 1008.4 | 1007.01 | 1005.53 | 1003.74 | 1001.79 | 1503 | 1514.2 | 1524.1 | 1532.5 | 1539.5
m1 = 0.7871 | 1010.4 | 1008.9 | 1007.35 | 1005.47 | 1003.45 | 1509.8 | 1520.2 | 1529.1 | 1536.7 | 1542.9
m1 = 0.8429 | 1011.13 | 1009.58 | 1008 | 1006.11 | 1004.04 | 1512.2 | 1522.2 | 1530.9 | 1538.1 | 1544

O [water] + COC(=O)CC(C)=O
Conditions | mass density [kg/m3]
308.15 K, m2 = 0 | 994.062

CCCCn1cc[n+](C)c1.[Br-] [1-butyl-3-methylimidazolium bromide] + O
Conditions | mass density, 288.15 K [kg/m3] | mass density, 293.15 K [kg/m3] | mass density, 298.15 K [kg/m3] | mass density, 303.15 K [kg/m3] | mass density, 308.15 K [kg/m3] | speed of sound, 288.15 K [m/s] | speed of sound, 293.15 K [m/s] | speed of sound, 298.15 K [m/s] | speed of sound, 303.15 K [m/s] | speed of sound, 308.15 K [m/s]
m1 = 0.1019 | 1004.34 | 1003.53 | 1002.16 | 1000.83 | 999.035 | 1479 | 1494.2 | 1506.8 | 1518.8 | 1528.1
m1 = 0.3048 | 1000.67 | 999.754 | 998.577 | 997.164 | 995.54 | 1470.2 | 1486.1 | 1500 | 1512.1 | 1522.2

O [water] + CCOC(=O)CC(C)=O
Conditions | mass density [kg/m3]
308.15 K, m2 = 0 | 994.062
